Source: article PMC3145970, “Specific CLK Inhibitors from a Novel Chemotype for Regulation of Alternative Splicing” (Chemistry & Biology, 2011)
Like-named read-outs stand apart in the source and are kept apart here.

Columns and labels:
Assay in all cases: Thermal stability shift assay
Assay type in all cases: binding
CK2a1 = CK2a1 (Homo sapiens, UniProt P68400); settings: read-out: Tm shift CK2a1
Summary of the method: (§1)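 Each value reflects thermal unfolding of 2 μM protein with 10 μM inhibitor, detected by SyproOrange (1:1000 dilution) fluorescence in 10 mM HEPES pH 7.5, 500 mM NaCl.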

MAP3K5 = biological target: T1, MAP3K5 (Homo sapiens, UniProt Q99683); settings: read-out: Tm shift MAP3K5
T1 construct: purchased in-house (SGC Oxford thermal shift panel)
T1 sequence (Q99683 1-1374): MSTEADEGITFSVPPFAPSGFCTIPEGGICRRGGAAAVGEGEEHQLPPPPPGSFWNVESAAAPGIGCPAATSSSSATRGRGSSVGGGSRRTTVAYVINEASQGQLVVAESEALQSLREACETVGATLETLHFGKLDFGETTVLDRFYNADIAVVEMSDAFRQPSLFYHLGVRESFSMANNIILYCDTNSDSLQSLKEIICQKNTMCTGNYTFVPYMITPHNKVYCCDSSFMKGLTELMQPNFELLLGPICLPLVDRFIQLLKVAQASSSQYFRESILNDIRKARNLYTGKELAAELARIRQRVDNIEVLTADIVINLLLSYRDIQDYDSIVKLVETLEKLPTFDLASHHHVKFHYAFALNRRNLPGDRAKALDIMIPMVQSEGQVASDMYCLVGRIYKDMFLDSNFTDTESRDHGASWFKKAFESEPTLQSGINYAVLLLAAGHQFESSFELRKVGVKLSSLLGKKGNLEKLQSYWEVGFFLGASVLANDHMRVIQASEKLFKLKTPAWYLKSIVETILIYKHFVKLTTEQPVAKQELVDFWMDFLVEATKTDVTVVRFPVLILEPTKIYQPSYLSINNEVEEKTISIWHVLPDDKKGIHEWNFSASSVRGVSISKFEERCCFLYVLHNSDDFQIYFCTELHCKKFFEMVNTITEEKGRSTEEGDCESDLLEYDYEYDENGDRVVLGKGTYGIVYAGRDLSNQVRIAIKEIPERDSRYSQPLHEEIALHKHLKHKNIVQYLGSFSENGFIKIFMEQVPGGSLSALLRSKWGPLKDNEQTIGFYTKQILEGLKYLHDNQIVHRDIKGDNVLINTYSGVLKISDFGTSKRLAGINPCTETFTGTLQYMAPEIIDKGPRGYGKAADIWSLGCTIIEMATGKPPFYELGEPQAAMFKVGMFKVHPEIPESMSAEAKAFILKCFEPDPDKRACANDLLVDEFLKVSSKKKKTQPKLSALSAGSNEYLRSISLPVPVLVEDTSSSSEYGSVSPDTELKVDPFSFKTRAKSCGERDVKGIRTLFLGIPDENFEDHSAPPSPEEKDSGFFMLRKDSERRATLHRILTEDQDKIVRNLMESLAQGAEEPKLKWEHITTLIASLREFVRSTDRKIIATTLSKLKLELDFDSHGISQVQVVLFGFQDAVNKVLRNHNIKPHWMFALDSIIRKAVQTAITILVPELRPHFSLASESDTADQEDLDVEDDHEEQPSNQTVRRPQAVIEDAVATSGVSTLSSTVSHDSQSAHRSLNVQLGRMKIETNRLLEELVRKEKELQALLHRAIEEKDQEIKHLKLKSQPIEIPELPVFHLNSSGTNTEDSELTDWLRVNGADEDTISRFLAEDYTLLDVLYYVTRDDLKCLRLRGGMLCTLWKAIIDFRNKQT
Summary of the method: as §1

DMPK1 = biological target: T2, DMPK1 (Homo sapiens, UniProt Q09013); settings: read-out: Tm shift DMPK1
T2 construct: purchased in-house (SGC Oxford thermal shift panel)
T2 sequence (Q09013 1-629): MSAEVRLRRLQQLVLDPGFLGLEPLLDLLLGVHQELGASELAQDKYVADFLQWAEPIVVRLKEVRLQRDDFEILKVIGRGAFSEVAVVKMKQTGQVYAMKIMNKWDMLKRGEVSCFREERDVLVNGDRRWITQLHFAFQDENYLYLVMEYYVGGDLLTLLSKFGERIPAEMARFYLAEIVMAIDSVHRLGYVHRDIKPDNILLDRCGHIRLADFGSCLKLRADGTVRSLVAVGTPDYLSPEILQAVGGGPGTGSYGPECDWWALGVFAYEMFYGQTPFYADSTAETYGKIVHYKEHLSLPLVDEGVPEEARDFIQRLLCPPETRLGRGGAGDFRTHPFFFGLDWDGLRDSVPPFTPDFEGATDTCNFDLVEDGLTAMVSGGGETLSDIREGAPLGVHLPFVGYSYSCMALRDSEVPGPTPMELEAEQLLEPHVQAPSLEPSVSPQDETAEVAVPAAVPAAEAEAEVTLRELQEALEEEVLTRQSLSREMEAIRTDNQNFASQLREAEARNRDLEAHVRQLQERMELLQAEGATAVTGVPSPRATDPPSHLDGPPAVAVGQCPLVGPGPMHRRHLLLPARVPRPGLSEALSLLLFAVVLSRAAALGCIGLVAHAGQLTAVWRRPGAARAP
Summary of the method: as §1

CaMKK1 = CaMKK1 (Homo sapiens, UniProt Q8N5S9); settings: read-out: Tm shift CaMKK1
Summary of the method: as §1

CaMK4 = biological target: T3, CaMK4 (Homo sapiens, UniProt Q16566); settings: read-out: Tm shift CaMK4
T3 sequence (Q16566 1-473): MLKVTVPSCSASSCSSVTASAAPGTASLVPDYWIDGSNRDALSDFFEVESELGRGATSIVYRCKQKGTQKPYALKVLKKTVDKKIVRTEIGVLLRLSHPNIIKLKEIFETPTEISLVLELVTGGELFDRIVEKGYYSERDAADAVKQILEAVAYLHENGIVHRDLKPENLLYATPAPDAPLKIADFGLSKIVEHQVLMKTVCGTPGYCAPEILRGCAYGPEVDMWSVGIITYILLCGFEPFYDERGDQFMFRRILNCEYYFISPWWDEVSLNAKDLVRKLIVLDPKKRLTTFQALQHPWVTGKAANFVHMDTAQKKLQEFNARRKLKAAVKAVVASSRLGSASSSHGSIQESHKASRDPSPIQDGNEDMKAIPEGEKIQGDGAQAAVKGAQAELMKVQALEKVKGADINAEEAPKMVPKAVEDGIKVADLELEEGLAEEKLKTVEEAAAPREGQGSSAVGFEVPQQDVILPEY
Summary of the method: as §1

Sequence of CaMKK1 (Q8N5S9 whole entry): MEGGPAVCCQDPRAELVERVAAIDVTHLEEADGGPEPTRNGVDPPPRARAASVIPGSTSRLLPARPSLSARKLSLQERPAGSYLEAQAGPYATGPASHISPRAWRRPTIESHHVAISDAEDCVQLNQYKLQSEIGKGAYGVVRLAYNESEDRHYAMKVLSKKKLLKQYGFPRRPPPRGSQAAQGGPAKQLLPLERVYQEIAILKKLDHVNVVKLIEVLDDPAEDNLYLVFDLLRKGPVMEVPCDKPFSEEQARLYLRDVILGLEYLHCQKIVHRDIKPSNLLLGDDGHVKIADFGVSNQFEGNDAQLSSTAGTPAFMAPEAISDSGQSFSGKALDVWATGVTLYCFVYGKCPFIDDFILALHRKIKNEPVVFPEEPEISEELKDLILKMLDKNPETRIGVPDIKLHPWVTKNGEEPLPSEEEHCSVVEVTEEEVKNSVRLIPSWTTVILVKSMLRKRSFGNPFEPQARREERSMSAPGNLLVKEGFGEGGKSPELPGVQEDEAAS
Sequence of CK2a1 (P68400 whole entry): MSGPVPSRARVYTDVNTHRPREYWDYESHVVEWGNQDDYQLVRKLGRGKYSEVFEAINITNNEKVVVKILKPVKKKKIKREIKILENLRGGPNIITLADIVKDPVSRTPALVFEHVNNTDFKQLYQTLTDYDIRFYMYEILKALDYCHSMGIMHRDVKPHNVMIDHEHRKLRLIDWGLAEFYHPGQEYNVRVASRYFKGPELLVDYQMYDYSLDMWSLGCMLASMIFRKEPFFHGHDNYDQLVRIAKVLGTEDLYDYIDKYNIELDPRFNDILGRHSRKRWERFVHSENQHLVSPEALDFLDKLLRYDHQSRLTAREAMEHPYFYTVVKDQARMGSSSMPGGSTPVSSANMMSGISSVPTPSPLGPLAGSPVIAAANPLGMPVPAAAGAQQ

Compound	ΔTm at 10 µM (CK2a1) [°C]	ΔTm at 10 µM (MAP3K5) [°C]	ΔTm at 10 µM (DMPK1) [°C]	ΔTm at 10 µM (CaMKK1) [°C]	ΔTm at 10 µM (CaMK4) [°C]	ΔTm at 10 µM (CK2a1; inhibitor 10 μM) [°C]	ΔTm at 10 µM (MAP3K5; inhibitor 10 μM) [°C]	ΔTm at 10 µM (DMPK1; inhibitor 10 μM) [°C]	ΔTm at 10 µM (CaMKK1; inhibitor 10 μM) [°C]	ΔTm at 10 µM (CaMK4; inhibitor 10 μM) [°C]
CCOC(=O)c1c(C(C#N)=CN)c2ccc(Cl)c(Cl)c2n1C (mixture of isomers) [KH-CB20, (E/Z)-Ethyl 3-(2-Amino-1-Cyanovinyl)-6,7-Dichloro-1-Methyl-1H-Indole-2-Carboxylate]	1.1	0.5	-0.4	0.6	-0.1	–	–	–	–	–
CCOC(=O)c1c(C(C#N)=CN(C)C)c2ccc(Cl)c(Cl)c2n1C (mixture of isomers) [compound 2, (E/Z)-Ethyl 6,7-Dichloro-3-[1-Cyano-2-(Dimethylamino)Vinyl]-1-Methyl-1H-Indole-2-Carboxylate]	–	–	–	–	–	1.4	0.2	-0.3	0.3	0.2
NC1=NC(=O)/C(=C2\CCNC(=O)c3[nH]c(Br)cc32)N1 [Hymenialdisine, hymenialdisine, reference compound]	–	–	–	–	–	0.8	8.7	0.2	0.2	0.4
CCOC(=O)c1c(/C(C#N)=C\N)c2ccc(Cl)c(Cl)c2n1C [KH-CB19, (E)-Ethyl 3-(2-Amino-1-Cyanovinyl)-6,7-Dichloro-1-Methyl-1H-Indole-2-Carboxylate]	1.3	0.8	-0.4	-0.1	0.8	–	–	–	–	–
Cn1c2c(Cl)c(Cl)ccc2c2c(C#N)c[nH]c(=O)c21 [compound 3, 7,8-Dichloro-9-Methyl-1-Oxo-2,9-Dihydro-1H-Pyrido[3,4-b]Indole-4-Carbonitrile]	–	–	–	–	–	1.3	0.8	0.9	0.4	0.4
